# Patent publication US20120171123A1, “USES AND COMPOSITIONS FOR TREATMENT OF RHEUMATOID ARTHRITIS” (priority 2006, published 2012)
# What was measured:
# [1] = test system: patients with long-standing RA who had inadequate responses to MTX; assay: Study 1: tender and swollen joint counts; type: in vivo, human
# Procedure: Two readers assessed X-rays performed at baseline (start of RCT), 1 year (end of RCT), and 3 years (post 2 years OLE). Changes from baseline in Total Sharp Score (TSS), Joint Erosions (JE), and Joint Space Narrowing (JSN) were calculated. ACR 20, 50, and 70 response rates, as well as TJC and SJC, were also measured.
# [2] = test system: patients with moderate to severe rheumatoid arthritis; assay: Study C: HAQ; type: in vivo, human
# Procedure: The Canadian Adalimumab Clinical Trial (Study C) was an open-label, multi-center, Phase IIIb study conducted in Canada. […] Efficacy and safety were assessed at baseline, 4, 8, and 12 weeks. Efficacy assessments included tender joint count (TJC 0-28), swollen joint count (SJC 0-28), Disease Activity Score 28 (DAS28), Health Assessment Questionnaire (HAQ), and EULAR response. This was a preliminary analysis of 236 patients. The sample size for each outcome variable is based on the data available at the time of the analysis. The data from this preliminary analysis were compared with the Week 12 data from Study A (N=2008).
# [3] = test system: MTX-naïve adult patients with active, early RA (<3 years); details: in vivo
# Source text: Study J was a 2-year randomized controlled trial in patients with early RA (disease duration<3 years). Participants in these clinical trials and in other phase Mb studies, were routinely evaluated for safety. Reports of serious adverse events (SAE) were tabulated using MedDRA coding by events per 100-patient-years (E/100PY). SAE rates were compared with respect to disease duration between patients with early (<3 yrs) and long-standing RA.
# [4] = test system: patients with active rheumatoid arthritis; assay: Study A: HAQ physical function; type: in vivo, human
# Source text: Efficacy of a treatment for rheumatoid arthritis can be determined by using the health assessment questionnaire (HAQ). Health Assessment Questionaire (HAQ) is a standardized disability questionnaire that was initially developed for use in rheumatoid arthritis (RA). […] The HAQ is a validated questionnaire designed to assess patients' ability to perform activities of daily living, particularly in adult arthritics. The instrument consists of the HAQ Disability Index (20 items), Pain Scale (1 item), and Global Health Status (1 item) that measure disability/physical functioning and quality of life (see Fries (1982) et al. J Rheumatol 9:789).
# Improvements in physical function were determined using the HAQ score.
# To evaluate the impact of prior biological therapies, patients with moderate to severe RA enrolled at 450 sites in 11 European countries plus Australia (Study A). Patients with moderate to severe RA and an inadequate response to prior DMARD therapies were enrolled in a 12-week open-label study with an optional extension phase. […] Efficacy parameters included ACR20, ACR50, ACR70, EULAR Response, HAQ, tender and swollen joint count (TJC28/SJC28), and DAS28.
# Patients with long-standing, moderate to severe RA were enrolled in Study A at 450 sites in 12 different countries. The study design for Study A is outlined in FIG. 21. […] Previous treatment with other biologics was allowed up to 8 weeks before enrollment. Patients met the following inclusion criteria: Age ≧18 years; RA (defined by American College of Rheumatology criteria) for ≧3 months; active, moderate to severe RA (Disease Activity Score (DAS28)≧3.2); unsatisfactory response or intolerance to at least one prior DMARD, including biologics. Efficacy assessments were performed at weeks 0 (baseline), 2, 6, and 12. The key outcomes measured were: change in DAS28; EULAR responses; ACR20, ACR50, ACR70 responses; changes in Tender Joint Count (TJC) and Swollen Joint Count (SJC); and change in Health Assessment Questionnaire (HAQ).
# Moderately to severely active RA was defined by Disease Activity Score 28 (DAS28)≧3.2 at baseline. Unsatisfactory response or intolerance to at least one prior DMARD was required for enrollment in Study A. A 12-week study period was followed by an optional extension phase with efficacy and routine safety evaluations performed at Weeks 2, 6, 12, 20, and every 8 weeks thereafter. […] Key efficacy parameters include ACR20, 50, and 70 responses; EULAR responses; and changes in DAS28, Tender Joint Count (TJC), Swollen Joint Count (SJC), C-Reactive Protein (CRP), and Health Assessment Questionnaire Disability Index (HAQ). […] Adverse events (AE) were collected throughout the entire treatment period, also beyond Week 52.
# [5] = test system: patients with long-standing RA; assay: Study 4: tender and swollen joint counts; type: in vivo, human
# Procedure: At the last visit, 24% of participants had 0 tender joints and 21% of participants had 0 swollen joints.
# Efficacy outcomes were evaluated as observed data: DAS28; ACR 20/50/70; Tender Joint Count (TJC); Swollen Joint Count (SJC); and HAQ Disability Index. Baseline demographics and disease characteristics were similar in both Study 4 and Study 5 consistent with moderate to severe RA, as shown below in Table 64: […]
# [6] = 12 weeks, all pts in Study A (n=4241)
# [7] = 12 weeks, prior biologic: Any (n=688)
# [8] = 12 weeks, prior biologic: ETA (n=114)
# [9] = 12 weeks, prior biologic: ETA + INF (n=78)
# [10] = 12 weeks, prior biologic: INF (n=358)
# [11] = 12 weeks, prior biologic: None (n=3553)
substance,measurement,setting,value
"adalimumab: human anti-TNF mAb (HUMIRA, Abbott Laboratories), described in U.S. Pat. No. 6,090,382 as D2E7",TJC or SJC,[1]; 36 months,5-7
same,patients with 0 swollen joints,[1]; last visit,22%
same,patients with 0 tender joints,[1]; last visit,21%
same,improvement in HAQ score,[2]; 12 weeks,−0.55
same,patients achieving HAQ<0.5,[2]; 12 weeks,28%
same,"HAQ (mean), change from baseline","[2]; Study C, 12 weeks, preliminary analysis",−0.55 (122)
same,mean HAQ,[2]; week 12 (baseline 1.4),0.86
same,All infectious AE,[3],110 Events/100-PY
same,Demyelination,[3],0.0 Events/100-PY
same,Lymphoma,[3],0.0 Events/100-PY
same,Malignancies,[3],0.9 Events/100-PY
same,Pancytopenia,[3],0.0 Events/100-PY
same,Serious AE,[3],21.1 Events/100-PY
same,Serious Infectious AE,[3],0.7 Events/100-PY
same,improvement in HAQ score,"[4]; 12 weeks, N=2008 analysis",−0.49
same,patients achieving HAQ<0.5,"[4]; 12 weeks, N=2008 analysis",25%
same,"Change in HAQ, mean change from baseline",[4]; [6],−0.49
same,HAQ < 0.5,[4]; [6],24%
same,"Change in HAQ, mean change from baseline",[4]; [7],−0.43
same,HAQ < 0.5,[4]; [7],13%
same,"Change in HAQ, mean change from baseline",[4]; [8],−0.36
same,HAQ < 0.5,[4]; [8],9%
same,"Change in HAQ, mean change from baseline",[4]; [9],−0.35
same,HAQ < 0.5,[4]; [9],13%
same,"Change in HAQ, mean change from baseline",[4]; [10],−0.49
same,HAQ < 0.5,[4]; [10],14%
same,"Change in HAQ, mean change from baseline",[4]; [11],−0.5
same,HAQ < 0.5,[4]; [11],26%
same,"Change in HAQ, mean change from baseline","[4]; Week 12, concomitant LEF only (n=557)",−0.47
same,"Change in HAQ, mean change from baseline","[4]; Week 12, concomitant MTX + LEF (n=123)",−0.53
same,"Change in HAQ, mean change from baseline","[4]; Week 12, concomitant MTX + SSZ",−0.53
same,"Change in HAQ, mean change from baseline","[4]; Week 12, concomitant MTX only (n=1561)",−0.52
same,"Change in HAQ, mean change from baseline","[4]; Week 12, concomitant QC/HQC (n=85)",−0.63
same,"Change in HAQ, mean change from baseline","[4]; Week 12, concomitant SSZ only (n=89)",−0.47
same,"Change in HAQ, mean change from baseline","[4]; Wk 12, concomitant MTX Im 15 mg (N=76), no other DMARD",−0.55
same,"Change in HAQ, mean change from baseline","[4]; Wk 12, concomitant MTX Iv 15 mg (N=23), no other DMARD",−0.54
same,"Change in HAQ, mean change from baseline","[4]; Wk 12, concomitant MTX Sc 15 mg (N=37), no other DMARD",−0.53
same,"Change in HAQ, mean change from baseline","[4]; Wk 12, concomitant MTX oral 15 mg (N=405), no other DMARD",−0.50
same,"Change in HAQ, mean change from baseline","[4]; Wk 12, concomitant MTX oral ≦7.5 (N=127), no other DMARD",−0.56
same,"Change in HAQ, mean change from baseline","[4]; Wk 12, concomitant MTX oral ≧20 mg (N=216), no other DMARD",−0.52
same,mean change in HAQ score from baseline,[4]; week 2,−0.32
same,mean change in HAQ score from baseline,[4]; week 6,−0.44
same,mean change in HAQ score from baseline,[4]; week 12,−0.51
same,patients achieving HAQ<0.5,[4]; week 12,5%
same,patients with a change in HAQ≧−0.22 (MCID),[4]; week 12,70%
same,change in HAQ,[4]; week 12 (n=6235),−0.52
same,patients achieving HAQ<0.5,"[4]; week 12, listed as Adalimumab",25%
same,change in HAQ,[4]; week 28 (n=4119),−0.56
same,change in HAQ,[4]; week 52 (n=1251),−0.57
same,"SJC (0-66), % change of mean clinical improvement from baseline",[5]; 6 months,58%
same,"TJC (0-68), % change of mean clinical improvement from baseline",[5]; 6 months,64%
same,"SJC (0-66), % change of mean clinical improvement from baseline",[5]; 12 months,67%
same,"TJC (0-68), % change of mean clinical improvement from baseline",[5]; 12 months,69%
same,"SJC (0-66), % change of mean clinical improvement from baseline",[5]; 24 months,69%
same,"TJC (0-68), % change of mean clinical improvement from baseline",[5]; 24 months,72%
same,"SJC (0-66), % change of mean clinical improvement from baseline",[5]; 36 months,68%
same,"TJC (0-68), % change of mean clinical improvement from baseline",[5]; 36 months,75%
same,"SJC (0-66), % change of mean clinical improvement from baseline",[5]; 48 months,61%
same,"TJC (0-68), % change of mean clinical improvement from baseline",[5]; 48 months,78%
same,median number of swollen joints,[5]; end of four years,3
same,median number of tender joints,[5]; end of four years,2
same,participants with 0 swollen joints,[5]; last visit (n=846 analysis),21%
same,participants with 0 tender joints,[5]; last visit (n=846 analysis),24%
